# Patent US6358982B1, “Heterocyclyl sulphonamide derivatives” (Eli Lilly and Company, priority 1998, dated 2002)
# Target: T1, human GluR4B receptor (Homo sapiens, UniProt P48058)
# T1 construct: expressed in transfected cells
# Experiment: potentiation of agonist-induced excitability of human GluR4B receptor expressed in HEK 293 cells (Fluo-3 calcium fluorescence)
# Type: cell-based
# Settings: human GluR4B expressed in HEK 293 cells
# Excerpt: The ability of compounds of formula I to potentiate glutamate receptor-mediated response may be determined using fluorescent calcium indicator dyes (Molecular Probes, Eugene, Oreg., Fluo-3) and by measuring glutamate-evoked efflux of calcium into GluR4 transfected HEK293 cells, as described in more detail below.
# In one test, 96 well plates containing confluent monolayers of HEK cells stably expressing human GluR4B (obtained as described in European Patent Application Publication Number EP-A1-583917) are prepared. The tissue culture medium in the wells is then discarded, and the wells are each washed once with 200 μl of buffer (glucose, 10 mM, sodium chloride, 138 mM, magnesium chloride, 1 mM, potassium chloride, 5 mM, calcium chloride, 5 mM, N-[2-hydroxyethyl]-piperazine-N-[2-ethanesulfonic acid], 10 mM, to pH 7.1 to 7.3). […]
# Each test is then performed as follows. […] A second fluorescent reading is taken after 5 minutes incubation. 15 μl of 400 μM glutamate solution is then added to each well (final glutamate concentration […]), and a third reading is taken. The activities of test compounds and cyclothiazide solutions are determined by subtracting the second from the third reading (fluorescence due to addition of glutamate in the presence or absence of test compound or cyclothiazide) and are expressed relative to enhance fluorescence produced by 100 μM cyclothiazide.
# T1 sequence (P48058 21-902): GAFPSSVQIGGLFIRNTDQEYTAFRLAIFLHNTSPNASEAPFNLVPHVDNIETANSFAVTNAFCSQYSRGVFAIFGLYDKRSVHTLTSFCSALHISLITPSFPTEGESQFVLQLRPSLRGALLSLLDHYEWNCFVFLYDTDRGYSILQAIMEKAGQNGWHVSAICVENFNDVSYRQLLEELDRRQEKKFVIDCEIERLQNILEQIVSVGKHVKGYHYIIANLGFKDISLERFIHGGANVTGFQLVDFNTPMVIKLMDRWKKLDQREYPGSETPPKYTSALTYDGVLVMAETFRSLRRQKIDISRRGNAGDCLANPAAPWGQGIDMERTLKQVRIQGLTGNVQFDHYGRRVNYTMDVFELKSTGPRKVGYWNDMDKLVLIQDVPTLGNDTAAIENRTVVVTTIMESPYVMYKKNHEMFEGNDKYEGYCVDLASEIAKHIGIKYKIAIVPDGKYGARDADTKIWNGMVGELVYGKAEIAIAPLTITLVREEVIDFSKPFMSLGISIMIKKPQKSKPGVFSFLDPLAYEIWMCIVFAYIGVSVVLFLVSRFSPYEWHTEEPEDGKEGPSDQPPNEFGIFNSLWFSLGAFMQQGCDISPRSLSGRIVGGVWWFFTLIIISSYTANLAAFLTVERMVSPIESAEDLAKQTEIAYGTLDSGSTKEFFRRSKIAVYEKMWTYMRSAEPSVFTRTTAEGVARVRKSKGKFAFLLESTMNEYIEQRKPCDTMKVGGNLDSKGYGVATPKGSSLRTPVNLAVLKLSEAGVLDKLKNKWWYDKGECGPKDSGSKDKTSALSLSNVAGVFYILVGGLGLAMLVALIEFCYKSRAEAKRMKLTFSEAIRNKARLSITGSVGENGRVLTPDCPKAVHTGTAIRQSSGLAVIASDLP
smiles,measurement,value
NS(=O)(=O)c1cc2c(cc1Cl)NC(C1CC3C=CC1C3)NS2(=O)=O (stereo not shown) [cyclothiazide],potentiation of agonist-induced excitability of human GluR4B receptor,potentiate
